SMILES strings stand for the structures. Where two headings read alike, the source gives them in different places.

Experiment [1] deals with T1, P. papatasi D7 protein AGE83092 (Phlebotomus papatasi, UniProt M1JMQ7).
T1 construct: made in house; host or cells: E. coli BL21 (DE3) pLysS
Description: biochemical. In kind it is binding. The procedure:
(§1) For cysteinyl leukotriene experiments, the calorimeter cell was filled with P. papatasi D7 protein AGE83092 (A–C) or P. duboscqi ABI15936 (E–G) at 2 μM in Tris-buffered saline. The syringe contained 20 μM LTC4 (A,E), LTD4 (B,F) and LTE4 (C,G) in the same buffer. Injections (10 µL) were spaced at 300 s intervals. […] The syringe concentration was 50 µM AGE83092 and 100 µM for ABI15936. Heats were recorded on a VP-ITC MicroCalorimeter and data were fit using a single binding site model on the MicroCal software package (Origin 7) for calculation of thermodynamic parameters. Titration curves are representative of at least 3 measurements.
(§2) Proteins were diluted in 20 mM tris pH 7.4, 150 mM NaCl and degassed. […] These were sonicated for 10 minutes in a water bath sonicator and degassed before use. Biogenic amines were dissolved in the same buffer and degassed. Heats were measured with a MicroCal VP-ITC calorimeter (Malvern, United Kingdom) using 10 μl ligand injections over periods of 20 seconds with 300 seconds spacing the injections. The measured heats were integrated and fit to a single-site binding model using the MicroCal Origin software.

For a further experiment, the target named is T2, P. duboscqi ABI15936 (Phlebotomus duboscqi, UniProt Q06KA2).
T2 construct: made in house; host or cells: E. coli BL21 (DE3) pLysS
Description: biochemical. It counts as binding. As to conditions: for affinities (1/Ka): range printed for both proteins (AGE83092 and ABI15936) together; for binding of biogenic amines: ITC (Fig. S1). The procedure:
as §1
Figure 7 Binding pocket interactions in ABI15936. (A) Stereoview of bound Triton X-100 with weighted omit electron density (Fo-Fc) contoured at 3 σ covering the ligand. Carbon atoms are colored green and oxygen atoms are colored red (B). […] In the protein, carbon is colored light grey, oxygen is colored red and nitrogen is colored blue. […] The refined position is shown in green and the rotated position in white.
as §2

The test system of a further experiment is AeD7. Further details: method as in PMID 19234127, PMID 21152418. As to conditions: cited from earlier work.
The subject of the next experiment is AnStD7L1. To be noted: cited from earlier work.
[2] abbreviates: ITC, single binding site model, Tris-buffered saline, protein 2 μM (10 µM for U46619), protein prepared with Triton X-100.
[3] abbreviates: ITC, single binding site model, protein prepared with Triton X-100.
The mark [4] stands for this setting: ITC, protein prepared without Triton X-100.

T1 sequence (M1JMQ7 20-254 limits assumed): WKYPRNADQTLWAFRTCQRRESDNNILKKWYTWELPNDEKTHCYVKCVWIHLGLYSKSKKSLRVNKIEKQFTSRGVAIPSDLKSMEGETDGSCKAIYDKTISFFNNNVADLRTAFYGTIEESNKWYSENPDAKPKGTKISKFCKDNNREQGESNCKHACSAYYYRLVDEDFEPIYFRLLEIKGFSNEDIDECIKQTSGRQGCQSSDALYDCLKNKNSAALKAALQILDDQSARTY
T2 sequence (Q06KA2 20-249 limits assumed): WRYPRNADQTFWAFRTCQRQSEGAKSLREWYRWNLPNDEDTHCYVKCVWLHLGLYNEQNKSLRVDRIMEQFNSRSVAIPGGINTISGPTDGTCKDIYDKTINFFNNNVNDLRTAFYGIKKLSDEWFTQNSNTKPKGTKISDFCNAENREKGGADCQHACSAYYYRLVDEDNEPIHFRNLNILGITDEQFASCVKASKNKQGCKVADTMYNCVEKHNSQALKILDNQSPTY

For `CCCCC[C@H](O)/C=C/[C@@H]1[C@@H](C/C=C\CCCC(=O)O)[C@H]2CO[C@@H]1C2` [U46619], the figures for the Ka (in experiment [1]; at P. duboscqi ABI15936 (setting [2])) were 1.33e+06 M⁻¹ and 780000 M⁻¹, respectively. The ΔH in experiment [1] is -8.5 kcal/mol; at P. duboscqi ABI15936 (setting [3]) it was -11.5 kcal/mol. The Kd in experiment [1] (read-out: affinity constant) is around 750 nM; on P. duboscqi ABI15936 (ITC, read-out: affinity constant), around 1300 nM. Moreover, the “affinity for AeD7” value with AeD7 is given as “no affinity”. Moreover, in the experiment with AnStD7L1, the “binding to AnStD7L1” value is “bound”.
Regarding `CCCCC/C=C\C\C=C/C=C/C=C/[C@@H](SC[C@H](N)C(=O)NCC(=O)O)[C@@H](O)CCCC(=O)O` [LTD4], the ΔH is -10.2 kcal/mol in experiment [1] (ITC, single binding site model) and -8.9 kcal/mol at P. duboscqi ABI15936 (setting [3]). The Kd is 1.75 nM in experiment [1] (Ka), 2 to 6 nM in experiment [1] (affinities (1/Ka)), 4.17 nM at P. duboscqi ABI15936 (Ka) and 2 to 6 nM on P. duboscqi ABI15936 (affinities (1/Ka)).
In the case of `CCCCC/C=C\C\C=C/C=C/C=C/[C@@H](SC[C@H](NC(=O)CC[C@H](N)C(=O)O)C(=O)NCC(=O)O)[C@@H](O)CCCC(=O)O` [LTC4], the Ka turned out to be 1.7e+08 M⁻¹ in experiment [1], 3.1e+08 M⁻¹ on P. duboscqi ABI15936 (setting [2]) and 2.2e+08 M⁻¹ at P. duboscqi ABI15936 (setting [4]). For the same molecule, the “affinities (1/Ka)” value (in experiment [1]; on P. duboscqi ABI15936 (ITC)) was 2 to 6 nM each time. For the same molecule, the ΔH is -10.3 kcal/mol in experiment [1] (ITC, single binding site model); -8.6 kcal/mol at P. duboscqi ABI15936 (setting [3]); -10.0 kcal/mol on P. duboscqi ABI15936 (setting [4]).
Take `CCCCC/C=C\C\C=C/C=C/C=C/[C@@H](SC[C@H](N)C(=O)O)[C@@H](O)CCCC(=O)O` [LTE4]: the Ka in experiment [1] was determined as 6.3e+07 M⁻¹; on P. duboscqi ABI15936 (setting [2]) it was 3.4e+07 M⁻¹. Moreover, the ΔH in experiment [1] (ITC, single binding site model) is -11.3 kcal/mol; on P. duboscqi ABI15936 (setting [3]), -7.0 kcal/mol. For the same molecule, the “affinities (1/Ka)” value at P. duboscqi ABI15936 (ITC) is 16 to 29 nM.
As for `NCCc1c[nH]cn1` [histamine], the “binding of biogenic amines” value (in experiment [1]; on P. duboscqi ABI15936) was “did not bind” throughout.
With `NCCc1c[nH]c2ccc(O)cc12` [serotonin], the “binding of biogenic amines” value (in experiment [1] (ITC (Fig. S1)); on P. duboscqi ABI15936) was “did not bind” throughout.

The values above are taken from PMC6440969, “Functional and structural similarities of D7 proteins in the independently-evolved salivary secretions of sand flies and mosquitoes” (Scientific Reports, 2019).
